As a reminder, the IC50 is the concentration that inhibits the measured activity by half.

Test [1] in a line: Antiproliferative activity against vincristine-resistant human KB cells assessed as inhibition of cell growth. Type of test: functional, cell-based.
For a further test, the system named is KB. Description: Antiproliferative activity against drug-sensitive human KB cells assessed as inhibition of cell growth. Type of test: functional, cell-based.
The subject of a further test is Jurkat. Description: Antiproliferative activity against human Jurkat cells assessed as inhibition of cell growth. Format: functional, cell-based.
Another test deals with NCI-H460. Description: Antiproliferative activity against human NCI-H460 cells assessed as inhibition of cell growth by MTT assay. Format: functional, cell-based. Background: Tetrazolium dyes change colour on reduction, which living cells bring about.
Test [2] concerns HepG2. Kind of test: Antiproliferative activity against human HepG2 cells assessed as inhibition of cell growth by MTT assay. Type of test: functional, cell-based.
The nature of test [3]: Antiproliferative activity against human BC cells assessed as inhibition of cell growth incubated for 24 hrs by MTT assay. Format: functional, cell-based.
Test [4] has as its system HepG2. Kind of test: Antiproliferative activity against human HepG2 cells assessed as inhibition of cell growth incubated for 24 hrs by MTT assay. To be noted: HepG2, 24 h. Format: functional, cell-based.
For the next test, the system named is AGS. Description: Antiproliferative activity against human AGS cells assessed as inhibition of cell growth incubated for 24 hrs by MTT assay. Format: functional, cell-based.
The test system of test [5] is L1210. Description: Antiproliferative activity against mouse L1210 cells assessed as inhibition of cell growth incubated for 24 hrs by MTT assay. Format: functional, cell-based. To be noted: L1210, 24 h.
The next test has as its system HCT-116. Description: Antiproliferative activity against human HCT-116 cells assessed as inhibition of cell growth incubated for 24 hrs by MTT assay. Type of test: functional, cell-based. To be noted: HCT-116, 24 h.
Test [6] concerns L1210. Description: Antiproliferative activity against mouse L1210 cells assessed as inhibition of cell growth. To be noted: L1210, read-out: ED50. Type of test: functional.
The subject of the next test is BT-549. Description: Antiproliferative activity against human BT-549 cells assessed as inhibition of cell growth incubated for 48 hrs by MTT assay. Format: functional, cell-based. As to conditions: BT-549, 48 h.
A further test concerns A549. Description: Antiproliferative activity against human A549 cells assessed as inhibition of cell growth incubated for 48 hrs by MTT assay. Type of test: functional, cell-based. To be noted: A549, 48 h.
The next test has as its system PC-3. Kind of test: Antiproliferative activity against human PC-3 cells assessed as inhibition of cell growth incubated for 48 hrs by MTT assay. As to conditions: PC-3, 48 h. Format: functional, cell-based.
The test system of another test is K562. Kind of test: Antiproliferative activity against human K562 cells assessed as inhibition of cell growth incubated for 48 hrs by MTT assay. Format: functional, cell-based. As to conditions: K562, 48 h.
Another test concerns Huh-7. Description: Antiproliferative activity against human Huh-7 cells assessed as inhibition of cell growth incubated for 72 hrs by MTT assay. Type of test: functional, cell-based. To be noted: Huh-7, 72 h.
Test [7] can be described thus: Antiproliferative activity against human AV3 cells assessed as inhibition of cell growth incubated for 72 hrs by MTT assay. Format: functional, cell-based. To be noted: AV3, 72 h.
The subject of the next test is MDA-MB-231. Kind of test: Antiproliferative activity against human MDA-MB-231 cells assessed as inhibition of cell growth incubated for 72 hrs by MTT assay. Format: functional, cell-based. To be noted: MDA-MB-231, 72 h.
The next test has as its system 4T1. Description: Antiproliferative activity against mouse 4T1 cells assessed as inhibition of cell growth incubated for 48 hrs by MTT assay. Format: functional, cell-based. As to conditions: 4T1, 48 h.
A further test has as its system MCF7. Description: Antiproliferative activity against human MCF7 cells assessed as inhibition of cell growth incubated for 48 hrs by MTT assay. Type of test: functional, cell-based. To be noted: MCF7, 48 h.
A further test has as its system HT-29. Description: Antiproliferative activity against human HT-29 cells assessed as inhibition of cell growth incubated for 48 hrs by SRB assay. To be noted: HT-29, time 48 hrs, read-out: ED50 (the source's name). Format: functional, cell-based. Background: In SRB staining, fixed cells bind dye roughly in proportion to their protein.

Converted amounts (≈) assume the structure as drawn.

For the molecule `C/C=C1/CN2CC[C@]34c5ccccc5N5[C@H](C(=O)OC)[C@H]1C[C@H]2[C@@]53Oc1c4cc2c(c1O)C(=O)O[C@@]13[C@@H]4C[C@H]5/C(=C\C)CN4CC[C@@]21c1ccccc1N3[C@@H]5C(=O)OC`, the IC50 in test [1] was 2 µg/mL (≈ 2.52 µM); in the test on KB, 3.2 µg/mL (≈ 4.03 µM); in the test with Jurkat, 3.7 µg/mL (≈ 4.65 µM).

Turning to `COC(=O)c1[nH]cc2c1[C@]1(CNc3ccc(Cl)cc31)c1[nH]c3ccc(Cl)cc3c1-2`, the IC50 with NCI-H460 came to 15 µg/mL (≈ 35.4 µM); in the test with HepG2 [2], 6 µg/mL (≈ 14.1 µM).

For the molecule `O=C1N[C@@H](c2c[nH]c3cc(Br)ccc23)CN=C1c1c[nH]c2cc(Br)ccc12` [HAMACANTHIN A], the IC50 in test [3] worked out at 10.7 µg/mL (≈ 22 µM); with HepG2 [4], 12.5 µg/mL (≈ 25.7 µM); with AGS, 1.1 µg/mL (≈ 2.26 µM); with L1210 [5] it was 1.1 µg/mL (≈ 2.26 µM).

Consider `O=C1C[C@@H]2c3ccc(O)c(O)c3[C@@]3(Nc4ccccc4C3=O)[C@@]23C(=O)c2ccccc2N13`, for which the IC50 with HCT-116 turned out to be 78 µM.

On to `CN1C[C@H](c2c[nH]c3cc(Br)ccc23)NC[C@H]1c1c[nH]c2cc(Br)ccc12`, for which the EC50 in the test with L1210 [6] was 10 µg/mL (≈ 20.5 µM).

For the molecule `CC[C@]12C=C[C@H](C3=CC4CC(C(=O)OC)=C5Nc6cc(OC)ccc6[C@@]56CCN(C3)[C@@H]46)N3CC[C@]4(C(=C(C(=O)OC)C1)Nc1cc(OC)ccc14)[C@@H]32` (some centres undefined), the IC50 was found to be 0.89 µM with BT-549, 11.4 µM in the test with A549, 3.44 µM in the test on PC-3 and 10.7 µM in the test with K562.

`C/C=C1/CCN2CC[C@@]34c5cc6c(cc5N(C)[C@]35OC[C@]4(C(=O)OC)[C@@H]1[C@H]25)O[C@@]12[C@@H]3C[C@H]4/C(=C\C)CN3CC[C@]1(C6)c1ccccc1N2[C@@H]4C(=O)OC`: the IC50 (with Huh-7; in [7]; with MDA-MB-231) was 9.8 µM throughout.

Take `C/C=C1/CN(C)[C@H]2Cc3c([nH]c4ccccc34)[C@H](c3cc4[nH]c5c(c4cc3OC)CCN3C[C@@H]4C[C@H](CC)[C@H]3[C@@]5(C(=O)OC)C4)C[C@@H]1C2C(=O)OC` (some centres undefined): the IC50 was found to be 1.42 µM in the test with 4T1 and 0.99 µM in the test on MCF7.

As to `C/C=C1/C[N+]2(C)CC[C@@]34C[C@H]5[C@@H]6C[C@H]7c8c(c9ccccc9n8C)C[C@@H]([C@@H]6CO[C@@]5(C)O[C@@]35[C@@H]2C[C@@H]1[C@@H](C(=O)OC)N5c1ccccc14)N7C` (some centres undefined), the EC50 in the test with HT-29 is 6.5 µM.

Take `C/C=C1/CCN2CC[C@@]34c5cc6c(cc5N(C)[C@]35OC[C@]4(C(=O)OC)[C@@H]1[C@H]25)O[C@@]12[C@@H]3C[C@H]4/C(=C\C)CN3CC[C@]1(C6)c1ccccc1N2[C@]4(CO)C(=O)OC`: the IC50 (in the test with Huh-7; in [7]; with MDA-MB-231) was 9.8 µM in each case.

Source of the values: ChEMBL document CHEMBL5331060, “Bisindole natural products: A vital source for the development of new anticancer drugs” (Eur J Med Chem, 2022).
